Experiment: Measurement of solubility of compound A in various solvents (oil components)
Type: physicochemical
Details: 25° C., stirred 24 hr
Experimental: An excess amount (about 0.2 g) of compound A was added to various solvents (10 g) described in Table 7, and the mixture was stirred at 25° C. for 24 hr. Thereafter, the solvent was filtered off through a 0.45 μm non-aqueous filter while maintaining the temperature. The content of compound A contained in the filtrate was measured in the same manner as in Experimental Example 1, and the solubility of compound A in various solvents was calculated.

## Cc1cc(C(=O)Nc2cc(Oc3ccc4nc(NC(=O)C5CC5)cn4n3)ccc2C)n(C)n1 [compound A, N-[5-({2-[(cyclopropylcarbonyl)amino]imidazo[1,2-b]pyridazin-6-yl}oxy)-2-methylphenyl]-1,3-dimethyl-1H-pyrazole-5-carboxamide]
Solvent castor oil
  solubility: 0.311%
Solvent corn oil
  solubility: 0.008%
Solvent cottonseed oil
  solubility: 0.008%
Solvent olive oil
  solubility: 0.009%
Solvent rape seed oil
  solubility: 0.007%
Solvent soybean oil
  solubility: 0.007%

— patent US20180028667A1, “AQUEOUS LIQUID AGENT” (SENJU PHARMACEUTICAL CO., LTD., priority 2014, published 2018)
